Measurements reported in article PMC5529018, “Discovery of novel brain permeable and G protein-biased beta-1 adrenergic receptor partial agonists for the treatment of neurocognitive disorders” (PLoS ONE, 2017).

Assays:
[1] = Pharmacokinetic study 2, 20-min post-dose collection; format: in vivo, Sprague-Dawley rats; settings: rat, 10 mg/kg, 20 min post-dose
Excerpt: Two cohorts of Sprague-Dawley rats were used in two independent studies. All animals were fasted overnight before the experiment with free access to water. In study 1, a total of 18 rats were used for a 4 hr time course pharmacokinetic (PK) study. Rats were anesthetized with 3% isoflurane and catheters were implanted into the jugular and/or portal veins for compound administration and/or blood sampling at 1 to 2 days prior to the experiments as previously described. […] Four hours post-dose, rats were deeply anesthetized with isoflurane and blood samples were collected by cardiac puncture. In study 2, a total of 18 rats were used for a 20 min post-dose collection study. […] At 20 min post-dose, rats were deeply anesthetized with isoflurane and blood samples were collected by cardiac puncture. Brains were collected after perfusion with phosphate buffered saline. All plasma samples were immediately separated after collection by centrifugation (11,000 rpm for 3 minutes) and stored at −80°C until analysis. […] Tulobuterol was used as the internal standard. The flow rate was set to 0.45 ml/min. Column temperature was 25°C. […] The injection volume was 20 μl. The mass spectrometer was operated in the positive mode with multiple-reaction monitoring (MRM). […] Mobile phase A consisted of 10 mM ammonium acetate and 0.1% formic acid in LCMS grade water. Mobile phase B consisted of 10 mM ammonium acetate and 0.1% formic acid in LCMS grade acetonitrile:water 90:10% (v/v). […] Five μl of the extracted samples were injected. […] Data acquisition and analysis were performed using the Analyst 1.6.1 software (AB SCIEX, CA).

[2] = Cardiovascular studies (heart rate, blood pressure); format: in vivo, Sprague-Dawley rats; settings: anesthetized rats, 3 mg/kg subcutaneous
Description: A polyethylene catheter (PE50) filled with heparinized saline was then inserted into the tail artery and connected to the blood pressure transducer system. After ensuring the absence of any air bubbles, 5–10 min of baseline systolic and diastolic blood pressure along with heart rate measurements were recorded using LabChart Pro (AD Instruments, CO).

[3] = tested on: LPS-induced TNFα response; assay: In vivo LPS assay; design: species or system C57Bl/6J mice; settings: 90 min post-LPS
Description: ; subcutaneous; […]; intraperitoneal; n = 4) or vehicle (5% DMSO/20%PEG400/water; intraperitoneal; n = 12) 15 min prior to LPS (50 ug/kg; intraperitoneal). A control group was injected with vehicle 15 minutes prior to saline (n = 18). Following injections, mice were single-housed. At 90 min post-LPS/saline, mice were deeply anesthetized with isoflurane and blood was collected from the right ventricle via cardiac puncture (23 g needle) into lithium heparin-containing vials (BD microtainer plasma tubes). Subsequently, brains were collected after perfusion with phosphate-buffered saline. Plasma was separated by centrifugation (11,000 rpm for 3 minutes) within 60 min of collection and stored at -80°C until analysis. The concentration of TNFα in the collected plasma was measured by ELISA (Invitrogen, KMC3012) according to the manufacturer’s instruction. The LPS-induced inflammatory response in the CNS was assessed by measuring mRNA expression for genes related to neuroimmune activation in brain tissue according to the previously reported method. Briefly, total RNA was extracted from hippocampus containing coronal sections using the RNeasy Lipid Tissue Mini Kit (Qiagen), and transcribed into cDNA (Superscript III, Invitrogen). PCR was performed in duplicate using TaqMan gene expression assays, TNFα (Mm00443258_m1), IL1b (Mm00434228_m1), IL6 (Mm00446190_m1), and glyceraldehyde-3-phosphate dehydrogenase (GAPDH; Mm99999915_g1). Fold changes of expression relative to control were determined after normalization to GAPDH. Relative quantification and fold change were calculated by the comparative CT method. Brain uptake of STD-101-D1 was determined in brain tissue. […]

[4] = cited from earlier work
ADRB1 [5] = molecular target: T1, ADRB1 (Homo sapiens, UniProt P08588); assay: cAMP assay (HTRF), ADRB1; format: cell-based; design: expressed in transfected cells; host or cells: HEK-293; settings: for Emax: 0.5 h, percent efficacy vs maximum response of isoproterenol, read-out: cAMP pathway ADRB1 % Iso max; for EC50 / cAMP pathway ADRB1 EC50: HEK-293 cells, geometric mean (95% confidence limits) of at least two experiments; for EC50: read-out: cAMP pathway ADRB1 EC50; for ADRB1 agonist activity (cAMP pathway), in words: compared to xamoterol (S)
T1 sequence (P08588 whole entry): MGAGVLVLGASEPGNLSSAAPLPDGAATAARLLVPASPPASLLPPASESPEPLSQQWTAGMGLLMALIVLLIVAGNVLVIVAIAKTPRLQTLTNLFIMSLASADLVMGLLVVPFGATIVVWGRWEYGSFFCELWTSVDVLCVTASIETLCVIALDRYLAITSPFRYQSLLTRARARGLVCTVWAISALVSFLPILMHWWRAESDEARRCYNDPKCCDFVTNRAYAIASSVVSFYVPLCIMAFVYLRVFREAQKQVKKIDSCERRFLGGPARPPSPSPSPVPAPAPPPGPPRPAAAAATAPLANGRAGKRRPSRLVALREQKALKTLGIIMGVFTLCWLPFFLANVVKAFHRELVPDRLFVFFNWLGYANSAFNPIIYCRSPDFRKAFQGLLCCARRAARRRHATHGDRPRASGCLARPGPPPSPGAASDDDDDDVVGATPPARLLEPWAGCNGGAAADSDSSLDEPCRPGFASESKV
Description: Pharmacological effects of compounds at the cAMP pathway mediated by ADRB1 were evaluated by measuring cAMP production using the homogenous time-resolved fluorescence detection method with HEK-293 cells stably expressing human recombinant ADRB1. Briefly, cells were suspended in HBSS buffer completed with 20 mM HEPES (pH 7.4) and 500 μM IBMX (3-isobutyl-1-methylxanthine) and distributed at a density of 3x10^3 cells/well. […] Following incubation, the cells were lysed and the fluorescence acceptor (D2-labeled cAMP) and fluorescence donor (anti-cAMP antibody labeled with europium cryptate) were added. […] The results were expressed as a percent of the maximum efficacy achieved with isoproterenol. Pharmacological effects of compounds at the cAMP pathway mediated by ADRB2 and ADRB3 were measured as described above using CHO cells stably expressing human recombinant ADRB2 and human SK-N-MC neurotumor cells endogenously expressing ADRB3, respectively.

[6] = tested on: LPS-induced TNFα production in primary microglia; assay: In vitro primary microglia TNFα assay; format: cell-based, Sprague Dawley rat; settings: Rattus norvegicus, 4 h, read-out: inhibition of LPS-induced TNFα production
Excerpt: Mixed glial cells were obtained from the cerebral cortex of Sprague Dawley rat pups at postnatal days 1–3. Briefly, neonates were euthanized by decapitation and their brain tissues were collected for cortex isolation. The isolated cortex was then trypsinized, triturated, and placed into tissue culture flasks in DMEM supplemented with 10% fetal bovine serum and 1% Penicillin/Streptomycin. After 10 days in vitro, microglia were harvested by gentle shaking of the growth flask, plated in a 96 well plate at a density of 30,000 cells/well, and incubated at 37°C overnight.

[7] = molecular target: panel of CNS relevant targets, including G protein-coupled receptors and transporters; assay: Off-target binding screen, panel of CNS relevant targets; settings: broad range of neurotransmitter transporters, ion channels and other CNS proteins; read-out: off-target affinity Ki
ADRB1 [8] = molecular target: T1, ADRB1; assay: β-arrestin assay (PathHunter enzyme fragment complementation); format: cell-based; design: host or cells: CHO-K1 (PathHunter)
Description: Pharmacological activity of compounds in the β-arrestin pathway mediated by ADRB1 were evaluated using an enzyme fragment complementation method with a β‐galactosidase functional reporter. An engineered CHO-K1-ADRB1 PathHunter cell line (DiscoveRx) was used in the assay. In this cell line, the enzyme acceptor (β‐galactosidase fragment) is fused to β-arrestin and the enzyme donor (β‐galactosidase fragment) is fused to the ADRB1. Thus, activation of the ADRB1 stimulates binding of β-arrestin to the ProLink-tagged ADRB1 and forces complementation of the two enzyme fragments, resulting in the formation of an active β‐galactosidase enzyme. Briefly, CHO-K1-ADRB1 PathHunter cell lines were plated in a total volume of 20 μL cell plating reagent (DiscoveRx, 93-0563R0A) at a density of 2,500 cells/well into 384 well microplates and incubated overnight at 37°C in 5% CO2. […] Chemiluminescent signal was then read with a PerkinElmer Envision (Perkin Elmer, Inc., MA) instrument. The results were expressed as a percent of the maximum efficacy achieved with isoproterenol.

Question: For O=C(NCCNCC(O)COc1ccc(O)cc1)N1CCOCC1 (stereo not shown) [Xamoterol, reference compound], which “plasma concentration after PO as percent of that after IP” value [1] is on record?
Answer: The value was 0.2%.

Question: What about the “plasma concentration after PO as percent of that after IV” value [1] of the same molecule?
Answer: The value was 0.7%.

Question: And the “decrease in blood pressure” value [2]?
Answer: Its value is 9%.

Question: And the “increase in heart rate” value [2]?
Answer: Its value is 4%.

Question: And the “CNS inflammatory markers after LPS” value ([3]; 3 mg/kg subcutaneous pre-treatment)?
Answer: The value was “Significant effects of xamoterol were not observed”.

Question: What about the “oral bioavailability in humans” value [4] of the same molecule?
Answer: The value was 5%.

Question: For N#Cc1cc(OC[C@@H](O)CNCCNC(=O)N2CCOCC2)ccc1O [STD-101-B6, (S)-N-(2-((3-(3-cyano-4-hydroxyphenoxy)-2-hydroxypropyl)amino)ethyl)morpholine-4-carboxamide], which Emax (ADRB1 [5]) is on record?
Answer: Its Emax is 25.1 ± 4.7%.

Question: What about the EC50 (ADRB1 [5]) of the same molecule?
Answer: The EC50 was 7.1 nM.

Question: What about the “ADRB1 agonist activity (cAMP pathway), in words” value (from here on “ADRB1 agonist activity”) (ADRB1 [5]) of the same molecule?
Answer: The value was “decrease in both potency and efficacy”.

Question: Which “cAMP pathway ADRB1 EC50” value (ADRB1 [5]) does the source give for N#Cc1cc(OC[C@@H](O)CNCCNC(=O)N2CCOCC2)c(F)cc1O [STD-101-B8, (S)-N-(2-((3-(5-cyano-2-fluoro-4-hydroxyphenoxy)-2-hydroxypropyl)amino)ethyl)morpholine-4-carboxamide] here?
Answer: Its value is “no response”.

Question: And the “ADRB1 agonist activity” value (ADRB1 [5])?
Answer: Its value is “abolished the agonist activity completely”.

Question: Which results are given for O=C(NCCNC[C@H](O)COc1cc(Cl)c(O)cc1F)N1CCOCC1 [STD-101-B4, (S)-N-(2-((3-(5-chloro-2-fluoro-4-hydroxyphenoxy)-2-hydroxypropyl)amino)ethyl)morpholine-4-carboxamide]?
Answer: cAMP pathway ADRB1 EC50 (ADRB1 [5]): no response; ADRB1 agonist activity (cAMP pathway), in words (ADRB1 [5]): abolished the agonist activity completely

Question: With O=C(NCCNC[C@H](O)COc1ccc(O)cc1)N1CCOCC1 [Xamoterol (S)] as the molecule, how does the inhibition at 10 µM [6] read?
Answer: The inhibition at 10 µM was about 55%.

Question: What about the “LPS-induced systemic (plasma) TNFα response” value ([3]; 3 mg/kg pre-treatment 15 min prior to LPS) of the same molecule?
Answer: Its value is “markedly inhibited”.

Question: What about the Ki [7] of the same molecule?
Answer: The Ki was over 10000 nM.

Question: For O=C(NCCNC[C@H](O)COc1cccc2c(O)cccc12)N1CCOCC1 [STD-101-E, (S)-N-(2-((2-hydroxy-3-((5-hydroxynaphthalen-1-yl)oxy)propyl)amino)ethyl)morpholine-4-carboxamide], which “cAMP pathway ADRB1 EC50” value (ADRB1 [5]) is on record?
Answer: The value was “no response”.

Question: And the “ADRB1 agonist activity” value (ADRB1 [5])?
Answer: Its value is “inactive”.

Question: For CC(C)NCC(O)c1ccc(O)c(O)c1 (stereo not shown) [isoproterenol], which inhibition at 10 µM [6] is on record?
Answer: Its inhibition at 10 µM is about 80%.

Question: Which “decrease in potency vs xamoterol (S), cAMP ADRB1” value (ADRB1 [5]) does the source give for COc1ccc(CCNCC(O)COc2ccc(O)c(O)c2)cc1OC (stereo not shown) [RO363, reference compound] here?
Answer: The value was “approximately 3 fold”.

Question: And the “increase in efficacy vs xamoterol (S), cAMP ADRB1” value (ADRB1 [5])?
Answer: The value was “approximately 2 fold”.

Question: What about the Emax (ADRB1 [5]) of the same molecule?
Answer: The Emax was 104 ± 23.9%.

Question: And the EC50 (ADRB1 [5])?
Answer: Its EC50 is 7.9 nM.

Question: What about the EC50 (ADRB1 [8]; CHO-K1-ADRB1 PathHunter cells, read-out: β-arrestin pathway ADRB1 EC50) of the same molecule?
Answer: Its EC50 is 32.2 nM.

Question: And the “β-arrestin pathway ADRB1 % Iso max” value (ADRB1 [8]; percent efficacy vs maximum response of isoproterenol)?
Answer: The value was 36.5%.
